Experiments:
[1] = cited from earlier work
[2] = In vitro release/permeation assay through porcine sublingual mucosa, unmodified or modified with formulations, Franz diffusion cells; assay type: in vitro ADME; conditions: for decrease in the permeability coefficient promoted by F16: mucosa modified with F16 vs unmodified mucosa; for permeability (in words): across skin, mucosa and modified mucosa; for Papp at 4 h, 1 %: pig, read-out: Permeability Coef. Kp (converted); for area under the curve, flux and permeability through unmodified mucosa compared to skin: unmodified mucosa vs porcine skin
Description: (§1) The in vitro release test was conducted with artificial membrane (Whatman® Nuclepore™) and porcine sublingual mucosa as well as pig skin membrane as a reference. Biological membranes (mucosa and skin) were dermatomed at 500 ± 50 µm of thickness. Membranes were placed in vertical Franz diffusion cells and conditioned in a thermostatic bath at 43 °C to assure a membrane surface temperature of 32 ± 1 °C as in the previous TMWL study. The receptor solution used was the same PBS:EtOH (1:1) as before. Data on the TWML, temperature, and humidity of the membrane were obtained before initiating the test with the Tewameter TM300 (Courage-Khazaka, Cologne, Germany).
(§2) On the modified mucosas, a volume of 70 µL of each formulation was applied and after one hour an infinite dose (300 µL) of tested solution was applied. […] Receptor fluid was collected at different times (30 min, 1 h, 2 h, 4 h) and the same volume was immediately replaced with fresh fluid. The aliquots were appropriately diluted and filtered (0.45 µm, Cameo, Sigma-Aldrich, St. Louis, MO, USA) before their analysis with HPLC/DAD.
(§3) The release of the active substances was determined with the cumulative amount released (Qn, μg/cm^2), which represents the cumulative amount of the active substances quantified in the receptor fluid per area of the sample [34]. The equation is as follows (1):(1) Qn=Cn×Vc+∑i=1n−1(Ci×Vs)/A, where Qn is the cumulative amount of active substance released at time n (μg/cm^2); Cn is the concentration of active substance in the collected sample (μg/mL); Vc is the volume of the Franz diffusion cell (3 mL); ∑i=1n−1 Ci is the sum of the active substance concentrations (µg/mL) determined in sampling intervals 1 to n − 1; Vs is the volume of the collected sample; and A is the surface area of the applied membrane (1.86 cm^2).
(§4) The best absorption model to describe the release of active substances was obtained from the graphic representation of data release (values/time), as described by Mallandrich et al.. All data collected were processed over time to obtain the best fit equation for each membrane using the nonlinear regression software STATGRAPHICS® plus 5 (Statgraphics Technologies, Inc., The Plains, VA, USA). Selection of the best equation was made in accordance with the highest correlation coefficient corrected for the number of degrees of freedom (R^2). Following that analysis, the parameters of the flow (J, […]), the permeability coefficient (Kp, cm/h), the delay time (Tl, h), the maximum concentration (Cmax, µg/mL), the maximum time (tmax, h), and the area under the curve (AUC) were calculated for each membrane.
(§5) The software was OpenLab (version 2.2.0). […] Methanol (Merck, Darmstadt, Germany) was used as an extraction solvent for all active substances. All analytical procedures were validated following the guidelines developed by the International Conference on Harmonization (ICH). The calibration curve, limit of quantification (LoQ), and limit of detection (LoD) were obtained and are detailed in Table 5.

[3] = In vitro release/permeation assay through porcine skin, Franz diffusion cells; assay type: in vitro ADME; conditions: infinite dose 300 µL of 1% solution; for Papp at 4 h, 1 %: pig, read-out: Permeability Coef. Kp (converted)
Description: as §1, §2, §3, §4, §5

[4] = cited from earlier work; remark: listed apart in the source

Molecule	pKa [1]	Flux. J ([2]; MUCOSA F3)	Lag Time. TL ([2]; MUCOSA F3)	Flux. J ([2]; MUCOSA F6)	Lag Time. TL ([2]; MUCOSA F6)	Flux. J ([2]; MUCOSA F16)	Lag Time. TL ([2]; MUCOSA F16)	Flux. J ([2]; MUCOSA unmodified)	Lag Time. TL ([2]; MUCOSA unmodified)	decrease in the permeability coefficient promoted by F16 [2]	Flux. J [3]	Lag Time. TL [3]	permeability (in words) [2]	Papp at 4 h, 1 % ([2]; MUCOSA F3)	Papp at 4 h, 1 % ([2]; MUCOSA F6)	Papp at 4 h, 1 % ([2]; MUCOSA F16)	Papp at 4 h, 1 % ([2]; MUCOSA unmodified)	area under the curve, flux and permeability through unmodified mucosa compared to skin [2]	Papp at 4 h, 1 % [3]	LogP (pH7.4) [4]
C[C@@H]1C[C@H]2[C@@H]3CCC4=CC(=O)C=C[C@]4(C)[C@@]3(F)[C@@H](O)C[C@]2(C)[C@@]1(O)C(=O)CO [DEX, Dexamethasone]	12.1	330.43 ± 11.68 µg/cm^2/h	0.36 ± 0.04 h	289.38 ± 99.51 µg/cm^2/h	0.64 ± 0.36 h	68.26 ± 1.67 µg/cm^2/h	-0.11 ± 0.27 h	335.25 ± 61.25 µg/cm^2/h	0.31 ± 0.13 h	approximately 80%	5.84 ± 3.46 µg/cm^2/h	0.62 ± 0.16 h								
CC(C)Cc1ccc(C(C)C(=O)O)cc1 (stereo not shown) [IBU, Ibuprofen]		498.25 ± 49.45 µg/cm^2/h	0.23 ± 0.01 h	451.01 ± 98.04 µg/cm^2/h	0.35 ± 0.06 h	74.41 ± 0.16 µg/cm^2/h	0.15 ± 0.003 h	346.91± 5.87 µg/cm^2/h	0.17 ± 0.07 h	approximately 80%	24.79 ± 2.75 µg/cm^2/h	-0.24 ± 0.19 h	intermediate permeability	11.4 ×10⁻⁶ cm/s	10.4 ×10⁻⁶ cm/s	1.71 ×10⁻⁶ cm/s	7.96 ×10⁻⁶ cm/s	14 times higher	0.569 ×10⁻⁶ cm/s	
Ivermectin	12.47	87.23 ± 21.83 µg/cm^2/h	0.28 ± 0.02 h	144.86 ± 29.93 µg/cm^2/h	0.32 ± 0.10 h	41.70 ± 5.67 µg/cm^2/h	-0.09 ± 0.46 h	63.75 ± 1.57 µg/cm^2/h	0.24 ± 0.001 h	approximately 40%	3.13 ± 0.86 µg/cm^2/h	0.59 ± 0.28 h								5.83
Cn1c(=O)c2c(ncn2C)n(C)c1=O [CAF, Caffeine]		102.73 ± 30.73 µg/cm^2/h	0.10 ± 0.08 h	611.08 ± 85.12 µg/cm^2/h	0.28 ± 0.08 h	78.93 ± 11.05 µg/cm^2/h	-0.18 ± 0.03 h	428.40 ± 81.41 µg/cm^2/h	0.04 ± 0.34 h	approximately 80%	75.09 ± 51.32 µg/cm^2/h	0.65 ± 0.24 h	high permeability	2.3 ×10⁻⁶ cm/s	13.7 ×10⁻⁶ cm/s	1.77 ×10⁻⁶ cm/s	9.6 ×10⁻⁶ cm/s	approximately four times higher	1.68 ×10⁻⁶ cm/s	
